In ChEMBL document CHEMBL5346903, “Discovery of novel and bioavailable histone deacetylases and cyclin-dependent kinases dual inhibitor to impair the stemness of leukemia cells” (Eur J Med Chem, 2023):

Test system: Kasumi 1
Experiment: Antiproliferative activity against human Kasumi 1 cells incubated for 72 hrs by CCK8 assay
Assay type: functional, cell-based
Conditions: Kasumi 1, 72 h

Row | SMILES | IC50 [µM]
1 | O=C(CCCCNC(=O)c1n[nH]cc1NC(=O)c1c(Cl)cccc1Cl)NO | > 10
2 | O=C(CCN1CCC(NC(=O)c2n[nH]cc2NC(=O)c2c(F)cccc2F)CC1)NO | 4.8
3 | Nc1cc(Cl)c(Cl)cc1NC(=O)c1ccc(NC(=O)c2n[nH]cc2NC(=O)c2c(F)cccc2F)cc1 | 7.79
4 | Nc1ccccc1NC(=O)c1ccc(NC(=O)c2n[nH]cc2NC(=O)c2c(F)cccc2F)cc1 | 3.1
5 | O=C(CCCCCNC(=O)c1ccc(NC(=O)c2n[nH]cc2NC(=O)c2c(Cl)cccc2Cl)cc1)NO | > 10
6 | O=C(CCCN1CCC(NC(=O)c2n[nH]cc2NC(=O)c2c(Cl)cccc2Cl)CC1)NO | 3.52
7 | O=C(CCCCCN1CCC(NC(=O)c2n[nH]cc2NC(=O)c2c(F)cccc2F)CC1)NO | > 10
8 | O=C(CNC(=O)c1ccc(NC(=O)c2n[nH]cc2NC(=O)c2c(F)cccc2F)cc1)NO | > 10
9 | O=C(Nc1ccccc1)c1ccc(NC(=O)c2n[nH]cc2NC(=O)c2c(Cl)cccc2Cl)cc1 | 3.83
10 | Nc1cc(Br)c(Br)cc1NC(=O)c1ccc(NC(=O)c2n[nH]cc2NC(=O)c2c(Cl)cccc2Cl)cc1 | 6.92
11 | O=C(CCCNC(=O)c1ccc(NC(=O)c2n[nH]cc2NC(=O)c2c(F)cccc2F)cc1)NO | 5.6
12 | O=C(CCNC(=O)c1ccc(NC(=O)c2n[nH]cc2NC(=O)c2c(Cl)cccc2Cl)cc1)NO | > 10
13 | O=C(CCNC(=O)c1n[nH]cc1NC(=O)c1c(Cl)cccc1Cl)NO | 3.87
14 | O=C(CCCNC(=O)c1n[nH]cc1NC(=O)c1c(Cl)cccc1Cl)NO | > 10
15 | O=C(CCCCCCN1CCC(NC(=O)c2n[nH]cc2NC(=O)c2c(Cl)cccc2Cl)CC1)NO | 6.41
16 | Cc1cc(N)c(NC(=O)c2ccc(NC(=O)c3n[nH]cc3NC(=O)c3c(F)cccc3F)cc2)cc1C | > 10

Target: Cyclin-dependent kinase 9 (Homo sapiens, UniProt P50750)
Experiment: Inhibition of CDK9 (unknown origin) preincubated for 20 mins followed by [gamma-33P]ATP addition measured after 120 mins in presence of ATP by Hot-SpotSM kinase assay
Conditions: not given

Chain of Cyclin-dependent kinase 9 (P50750 whole entry): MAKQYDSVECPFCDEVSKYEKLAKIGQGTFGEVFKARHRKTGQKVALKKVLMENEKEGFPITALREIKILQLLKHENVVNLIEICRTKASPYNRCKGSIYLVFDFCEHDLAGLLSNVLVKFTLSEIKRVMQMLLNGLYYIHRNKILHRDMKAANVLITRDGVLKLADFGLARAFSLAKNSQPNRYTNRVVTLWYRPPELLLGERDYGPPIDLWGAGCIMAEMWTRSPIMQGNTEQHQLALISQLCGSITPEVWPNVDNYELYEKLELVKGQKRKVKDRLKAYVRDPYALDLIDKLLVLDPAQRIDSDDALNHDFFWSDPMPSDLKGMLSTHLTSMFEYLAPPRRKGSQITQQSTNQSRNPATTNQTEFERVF

Row | IC50 [µM] | SMILES
17 | < 0.1 | O=C(CCCCNC(=O)c1n[nH]cc1NC(=O)c1c(Cl)cccc1Cl)NO
18 | < 0.1 | O=C(CCN1CCC(NC(=O)c2n[nH]cc2NC(=O)c2c(F)cccc2F)CC1)NO
19 | < 0.1 | Nc1cc(Cl)c(Cl)cc1NC(=O)c1ccc(NC(=O)c2n[nH]cc2NC(=O)c2c(F)cccc2F)cc1
20 | < 0.1 | Nc1ccccc1NC(=O)c1ccc(NC(=O)c2n[nH]cc2NC(=O)c2c(F)cccc2F)cc1
21 | < 0.1 | O=C(CCCCCNC(=O)c1ccc(NC(=O)c2n[nH]cc2NC(=O)c2c(Cl)cccc2Cl)cc1)NO
22 | < 0.1 | O=C(CCCN1CCC(NC(=O)c2n[nH]cc2NC(=O)c2c(Cl)cccc2Cl)CC1)NO
23 | < 0.1 | O=C(CCCCCN1CCC(NC(=O)c2n[nH]cc2NC(=O)c2c(F)cccc2F)CC1)NO
24 | < 0.1 | O=C(CNC(=O)c1ccc(NC(=O)c2n[nH]cc2NC(=O)c2c(F)cccc2F)cc1)NO
25 | < 0.1 | O=C(Nc1ccccc1)c1ccc(NC(=O)c2n[nH]cc2NC(=O)c2c(Cl)cccc2Cl)cc1
26 | < 0.1 | Nc1cc(Br)c(Br)cc1NC(=O)c1ccc(NC(=O)c2n[nH]cc2NC(=O)c2c(Cl)cccc2Cl)cc1
27 | < 0.1 | O=C(CCCNC(=O)c1ccc(NC(=O)c2n[nH]cc2NC(=O)c2c(F)cccc2F)cc1)NO
28 | < 0.1 | O=C(CCNC(=O)c1ccc(NC(=O)c2n[nH]cc2NC(=O)c2c(Cl)cccc2Cl)cc1)NO
29 | < 0.1 | O=C(CCNC(=O)c1n[nH]cc1NC(=O)c1c(Cl)cccc1Cl)NO
30 | < 0.1 | O=C(CCCNC(=O)c1n[nH]cc1NC(=O)c1c(Cl)cccc1Cl)NO
31 | < 0.1 | O=C(CCCCCCN1CCC(NC(=O)c2n[nH]cc2NC(=O)c2c(Cl)cccc2Cl)CC1)NO
32 | < 0.1 | Cc1cc(N)c(NC(=O)c2ccc(NC(=O)c3n[nH]cc3NC(=O)c3c(F)cccc3F)cc2)cc1C

Test system: U-937
Experiment: Antiproliferative activity against human U-937 cells incubated for 72 hrs by CCK8 assay
Assay type: functional, cell-based
Conditions: U-937, 72 h

Row | IC50 [µM] | SMILES
33 | > 10 | O=C(CCCCNC(=O)c1n[nH]cc1NC(=O)c1c(Cl)cccc1Cl)NO
34 | > 10 | O=C(CCN1CCC(NC(=O)c2n[nH]cc2NC(=O)c2c(F)cccc2F)CC1)NO
35 | 6.8 | Nc1cc(Cl)c(Cl)cc1NC(=O)c1ccc(NC(=O)c2n[nH]cc2NC(=O)c2c(F)cccc2F)cc1
36 | 5.6 | Nc1ccccc1NC(=O)c1ccc(NC(=O)c2n[nH]cc2NC(=O)c2c(F)cccc2F)cc1
37 | > 10 | O=C(CCCCCNC(=O)c1ccc(NC(=O)c2n[nH]cc2NC(=O)c2c(Cl)cccc2Cl)cc1)NO
38 | 1.61 | O=C(CCCN1CCC(NC(=O)c2n[nH]cc2NC(=O)c2c(Cl)cccc2Cl)CC1)NO
39 | > 10 | O=C(CCCCCN1CCC(NC(=O)c2n[nH]cc2NC(=O)c2c(F)cccc2F)CC1)NO
40 | > 10 | O=C(CNC(=O)c1ccc(NC(=O)c2n[nH]cc2NC(=O)c2c(F)cccc2F)cc1)NO
41 | 4.68 | O=C(Nc1ccccc1)c1ccc(NC(=O)c2n[nH]cc2NC(=O)c2c(Cl)cccc2Cl)cc1
42 | 9.13 | Nc1cc(Br)c(Br)cc1NC(=O)c1ccc(NC(=O)c2n[nH]cc2NC(=O)c2c(Cl)cccc2Cl)cc1
43 | > 10 | O=C(CCCNC(=O)c1ccc(NC(=O)c2n[nH]cc2NC(=O)c2c(F)cccc2F)cc1)NO
44 | > 10 | O=C(CCNC(=O)c1ccc(NC(=O)c2n[nH]cc2NC(=O)c2c(Cl)cccc2Cl)cc1)NO
45 | > 10 | O=C(CCNC(=O)c1n[nH]cc1NC(=O)c1c(Cl)cccc1Cl)NO
46 | > 10 | O=C(CCCNC(=O)c1n[nH]cc1NC(=O)c1c(Cl)cccc1Cl)NO
47 | 0.47 | O=C(CCCCCCN1CCC(NC(=O)c2n[nH]cc2NC(=O)c2c(Cl)cccc2Cl)CC1)NO
48 | > 10 | Cc1cc(N)c(NC(=O)c2ccc(NC(=O)c3n[nH]cc3NC(=O)c3c(F)cccc3F)cc2)cc1C

Test system: HL-60
Experiment: Antiproliferative activity against human HL-60 cells incubated for 72 hrs by CCK8 assay
Assay type: functional, cell-based
Conditions: HL-60, 72 h

Row | IC50 [µM] | SMILES
49 | > 10 | O=C(CCCCNC(=O)c1n[nH]cc1NC(=O)c1c(Cl)cccc1Cl)NO
50 | 4.45 | O=C(CCN1CCC(NC(=O)c2n[nH]cc2NC(=O)c2c(F)cccc2F)CC1)NO
51 | > 10 | Nc1cc(Cl)c(Cl)cc1NC(=O)c1ccc(NC(=O)c2n[nH]cc2NC(=O)c2c(F)cccc2F)cc1
52 | > 10 | Nc1ccccc1NC(=O)c1ccc(NC(=O)c2n[nH]cc2NC(=O)c2c(F)cccc2F)cc1
53 | > 10 | O=C(CCCCCNC(=O)c1ccc(NC(=O)c2n[nH]cc2NC(=O)c2c(Cl)cccc2Cl)cc1)NO
54 | 1.24 | O=C(CCCN1CCC(NC(=O)c2n[nH]cc2NC(=O)c2c(Cl)cccc2Cl)CC1)NO
55 | 1.81 | O=C(CCCCCN1CCC(NC(=O)c2n[nH]cc2NC(=O)c2c(F)cccc2F)CC1)NO
56 | > 10 | O=C(CNC(=O)c1ccc(NC(=O)c2n[nH]cc2NC(=O)c2c(F)cccc2F)cc1)NO
57 | 5.84 | O=C(Nc1ccccc1)c1ccc(NC(=O)c2n[nH]cc2NC(=O)c2c(Cl)cccc2Cl)cc1
58 | 6.86 | Nc1cc(Br)c(Br)cc1NC(=O)c1ccc(NC(=O)c2n[nH]cc2NC(=O)c2c(Cl)cccc2Cl)cc1
59 | > 10 | O=C(CCCNC(=O)c1ccc(NC(=O)c2n[nH]cc2NC(=O)c2c(F)cccc2F)cc1)NO
60 | > 10 | O=C(CCNC(=O)c1ccc(NC(=O)c2n[nH]cc2NC(=O)c2c(Cl)cccc2Cl)cc1)NO
61 | 10 | O=C(CCNC(=O)c1n[nH]cc1NC(=O)c1c(Cl)cccc1Cl)NO
62 | > 10 | O=C(CCCNC(=O)c1n[nH]cc1NC(=O)c1c(Cl)cccc1Cl)NO
63 | 1.09 | O=C(CCCCCCN1CCC(NC(=O)c2n[nH]cc2NC(=O)c2c(Cl)cccc2Cl)CC1)NO
64 | > 10 | Cc1cc(N)c(NC(=O)c2ccc(NC(=O)c3n[nH]cc3NC(=O)c3c(F)cccc3F)cc2)cc1C

Target: Histone deacetylase
Experiment: Inhibition of HDAC in human nuclear extract using Ac-Arg-Gly-Lys(Ac)-AMC as substrate incubated overnight by fluorescence based assay
Assay type: subcellular, Nucleus
Conditions: hela

Row | IC50 [µM] | SMILES
65 | < 1 | O=C(CCCCCCN1CCC(NC(=O)c2n[nH]cc2NC(=O)c2c(Cl)cccc2Cl)CC1)NO

Test system: not listed separately
Experiment: Antiproliferative activity against human SKNO-1 cells incubated for 72 hrs by CCK8 assay
Assay type: functional, cell-based
Conditions: SKNO-1, 72 h

Row | SMILES | IC50 [µM]
66 | O=C(CCCCNC(=O)c1n[nH]cc1NC(=O)c1c(Cl)cccc1Cl)NO | > 10
67 | O=C(CCN1CCC(NC(=O)c2n[nH]cc2NC(=O)c2c(F)cccc2F)CC1)NO | 9.28
68 | Nc1cc(Cl)c(Cl)cc1NC(=O)c1ccc(NC(=O)c2n[nH]cc2NC(=O)c2c(F)cccc2F)cc1 | 7.28
69 | Nc1ccccc1NC(=O)c1ccc(NC(=O)c2n[nH]cc2NC(=O)c2c(F)cccc2F)cc1 | 2.65
70 | O=C(CCCCCNC(=O)c1ccc(NC(=O)c2n[nH]cc2NC(=O)c2c(Cl)cccc2Cl)cc1)NO | > 10
71 | O=C(CCCN1CCC(NC(=O)c2n[nH]cc2NC(=O)c2c(Cl)cccc2Cl)CC1)NO | 2.23
72 | O=C(CCCCCN1CCC(NC(=O)c2n[nH]cc2NC(=O)c2c(F)cccc2F)CC1)NO | > 10
73 | O=C(CNC(=O)c1ccc(NC(=O)c2n[nH]cc2NC(=O)c2c(F)cccc2F)cc1)NO | > 10
74 | O=C(Nc1ccccc1)c1ccc(NC(=O)c2n[nH]cc2NC(=O)c2c(Cl)cccc2Cl)cc1 | 3.27
75 | Nc1cc(Br)c(Br)cc1NC(=O)c1ccc(NC(=O)c2n[nH]cc2NC(=O)c2c(Cl)cccc2Cl)cc1 | 4.56
76 | O=C(CCCNC(=O)c1ccc(NC(=O)c2n[nH]cc2NC(=O)c2c(F)cccc2F)cc1)NO | > 10
77 | O=C(CCNC(=O)c1ccc(NC(=O)c2n[nH]cc2NC(=O)c2c(Cl)cccc2Cl)cc1)NO | > 10
78 | O=C(CCNC(=O)c1n[nH]cc1NC(=O)c1c(Cl)cccc1Cl)NO | > 10
79 | O=C(CCCNC(=O)c1n[nH]cc1NC(=O)c1c(Cl)cccc1Cl)NO | > 10
80 | O=C(CCCCCCN1CCC(NC(=O)c2n[nH]cc2NC(=O)c2c(Cl)cccc2Cl)CC1)NO | 3.09
81 | Cc1cc(N)c(NC(=O)c2ccc(NC(=O)c3n[nH]cc3NC(=O)c3c(F)cccc3F)cc2)cc1C | 6.89
